In patent US8822513B2, “Compounds for treatment of cancer” (GTX, Inc., priority 2010, dated 2014):
Read-outs that look alike come from different tables or passages of the source.

How the values were obtained:
[1] = test system: three melanoma cell lines and four human prostate cancer cell lines; assay: SRB cytotoxicity, melanoma and prostate cancer cell lines (ranges and averages over the panel); type: cell-based; settings: for antiproliferative activity (in words): Tables 1-3
LNCaP cells = assay: SRB cytotoxicity assay, LNCaP; type: cell-based, human; settings: read-out: IC50 ± SEM LNCaP
Excerpt: (§1) Cells were stained with SRB solution.

PC-3/TxR xenografts = type: in vivo; settings: for Tumor size Start: PC-3/TxR xenograft
PC-3 cells = settings: 96 h
Excerpt: as §1
Cells were stained with sulphorhodamine B (SRB) solution.

[2] = Metabolic stability in human liver microsomes; settings: for Half life in Human liver microsome: Table 20
[3] = test system: tubulin (colchicine, vinblastine, paclitaxel binding sites); assay: MS competitive binding assay
Excerpt: Each reaction was run in triplicate.

HUVEC monolayers = assay: Endothelial monolayer permeability assay (FITC-dextran, transwell); settings: 1, 2, 4 h
B16-F1 melanoma cells = assay: B16-F1 melanoma colony formation assay in soft agar; type: cell-based, mouse; settings: 14 days; tested 20, 100, 500 nM
Experimental: B16-F1 melanoma cells were plated at a colony-forming density (2000 cells per well on six-well plates) on top of 0.8% base agar. Cells were grown in 0.4% agar together with DMEM medium supplemented with fetal bovine serum and an antibiotic-antimycotic solution at 37° C. in an atmosphere of 95% air and 5% CO2. […] Compounds were added to the media from 1 mM DMSO stock solutions, and a corresponding dilution of DMSO was used as control. Cells were grown for 14 days. Plates were photographed, and the number of colonies was measured by Artek 880 Automated Colony Counter (Artek Systems Corporation, Farmingdale, N.Y.).

[4] = test system: microtubules in WM-164 melanoma cells; assay: Microtubule imaging (immunofluorescence), WM-164; type: cell-based, human; settings: 18 h
[5] = Metabolic stability in mouse liver microsomes; type: in vitro ADME; settings: Table 20
[6] = Metabolic stability in rat liver microsomes; type: in vitro ADME; settings: Table 20
[7] = Metabolic stability in dog liver microsomes; type: in vitro ADME; settings: Table 20
[8] = Metabolic stability in monkey liver microsomes; type: in vitro ADME; settings: Table 20
DU 145 cells = assay: SRB cytotoxicity assay, DU 145; type: cell-based, human; settings: Table 12; 96 h; read-out: IC50 ± SEM Du 145
Excerpt: as §1

PPC-1 cells = settings: read-out: IC50 ± SEM PPC-1; Table 12; 96 h
Excerpt: as §1

A375 melanoma xenografts = assay: In vivo efficacy, A375 melanoma xenograft in nude mice (SMART compounds); design: species or system mouse; settings: Melanoma (A375) xenograft, 20 mg/kg i.p.
A375 melanoma cells = assay: SRB cytotoxicity assay, A375; type: cell-based, human; settings: Table 6; read-out: IC50 ± SEM A375
[9] = average of all seven cell lines, read-out: average IC50
[10] = read-out: IC50 ± SEM PC-3, Table 12

COc1cc(C(=O)[C@H]2COC(c3ccccc3)=N2)cc(OC)c1OC [35a, (2R)-(2-Phenyl-4,5-dihydro-oxazol-4-yl)-(3,4,5trimethoxy-phenyl)-methasone]
antiproliferative activity (in words) [1]: hundreds of nanomolar range

O=C(c1ccc(F)cc1)c1c[nH]c(-c2ccccc2C(F)(F)F)n1 [12ib, (4-fluorophenyl)(2-(2-(trifluoromethyl)phenyl)-1H-imidazol-4-yl)methanone]
IC50 [1, 9]: > 10 µM

COc1cc(C(=O)c2csc(-c3cc(F)c(F)c(F)c3)n2)cc(OC)c1OC [2p]
IC50 (LNCaP cells; Table 6): > 10 µM

CC(=O)O[C@@]12CO[C@@H]1C[C@H](O)[C@@]1(C)C(=O)[C@H](O)C3=C(C)[C@@H](OC(=O)[C@H](O)[C@@H](NC(=O)OC(C)(C)C)c4ccccc4)C[C@@](O)([C@@H](OC(=O)c4ccccc4)[C@H]21)C3(C)C [Docetaxel, reference compound]
Tumor size Start (PC-3/TxR xenografts; IV 10 mpk, day 1 and 9, end point day 19): 143 ± 20 mm^3

COc1cc(C(=O)c2csc(-c3ccc(CN(C)C)cc3)n2)cc(OC)c1OC.Cl [2u, (2-(4-((Dimethylamino)methyl)phenyl)thiazol-4-yl)(3,4,5-trimethoxyphenyl)methanone hydrochloride]
antiproliferative activity (in words) [1]: abrogated activity

O=C(c1cccc(F)c1)c1c[nH]c(-c2ccccc2)n1 [12ag, (3-fluorophenyl)(2-phenyl-1H-imidazol-4-yl)methanone]
IC50 (PC-3 cells; read-out: IC50 PC-3, Table 11): > 10 µM

O=S(=O)(c1ccccc1)n1ccnc1-c1ccccc1 [10a, 2-phenyl-1-(phenylsulfonyl)-1H-imidazole]
IC50 (PC-3 cells; read-out: IC50 PC-3, Table 11): > 10 µM

COc1cc(C(O)c2csc(-c3ccccc3)n2)cc(OC)c1OC (stereo not drawn) [2b, (2-Phenylthiazol-4-yl)(3,4,5-trimethoxyphenyl)methanol]
antiproliferative activity (in words) [1]: inactive

COc1cc(/C(=N/O)c2csc(-c3ccccc3)n2)cc(OC)c1OC [2e-cis, (Z)-(2-Phenylthiazol-4-yl)(3,4,5-trimethoxyphenyl)methanone oxime]
fold more activity than anti-isomer 2e-trans [1]: 10 fold | Half life in Human liver microsome [2]: 35 min

COc1cc(C(=O)c2csc(Nc3ccc4[nH]ccc4c3)n2)cc(OC)c1OC [compound 55, (2-(1H-indol-5-yl amino)thiazol-4-yl)(3,4,5-trimethoxyphenyl)methanone]
Half-life in HLM (Phase I) ([2]; Table 16B, Phase I): 30 min | Half-life in HLM (Phase I + II) ([2]; Table 16B, Phase I + II (UDP-glucuronic acid present)): 43 min | Tumor size Start (PC-3/TxR xenografts; PO 10 mpk, b.i.d × 5/w, end point day 26): 143 ± 44 mm^3 | Tumor size Start (PC-3/TxR xenografts; PO 30 mpk, b.i.d × 5/w, end point day 26): 134 ± 34 mm^3 | TGI (PC-3/TxR xenografts; p.o. 30 mg/kg b.i.d., five times a week, day 19 to 26): > 100% | competition with colchicine-tubulin binding [3]: competed effectively with colchicine | permeability of endothelial cell monolayer (HUVEC monolayers): increased permeability

COc1ccc(-c2nc(C(=O)c3ccc(F)cc3)c[nH]2)cc1 [12cb, (4-fluorophenyl)(2-(4-methoxyphenyl)-1H-imidazol-4-yl)methanone]
lowest tested concentration with effective inhibition of colony formation (B16-F1 melanoma cells): 20 nM | effect on microtubules [4]: microtubule fragmentation

Fc1ccc(-c2nccc3ccc(-c4ccc5[nH]ccc5c4)cc23)cc1 [6c, 1-(4-Fluoro-phenyl)-7-(1H-indol-5-yl)-isoquinoline]
Half life in Mouse liver microsome [5]: 13 min | Half life in Rat liver microsome [6]: 14 min | Half life in Human liver microsome [2]: 47 min | Half life in Dog liver microsome [7]: 29 min | Half life in Monkey liver microsome [8]: 9 min

COc1cc(-c2nc(C(=O)c3ccc(F)cc3)c[nH]2)cc(OC)c1OC [12eb, (4-fluorophenyl)(2-(3,4,5-trimethoxyphenyl)-1H-imidazol-4-yl)methanone]
IC50 [1, 9]: > 10 µM | IC50 (DU 145 cells): > 10 µM | IC50 (PPC-1 cells): > 10 µM | IC50 (PC-3 cells; [10]): > 10 µM | IC50 (LNCaP cells; Table 12, 96 h): > 10 µM

COc1ccc(C(=O)c2c[nH]c(-c3ccccc3)n2)cc1OC [12ae, (3,4-dimethoxyphenyl)(2-phenyl-1H-imidazol-4-yl)methanone]
IC50 (PC-3 cells; read-out: IC50 PC-3, Table 11): > 10 µM

COc1ccc(S(=O)(=O)Nc2cccnc2Nc2ccc(O)cc2)cc1 [ABT-751, reference compound]
effect on microtubules [4]: microtubule fragmentation

COc1cc(/C=C\c2csc(-c3ccccc3)n2)cc(OC)c1OC [3a, (Z)-2-Phenyl-4-(3,4,5-trimethoxystyryl)thiazole]
antiproliferative activity (in words) [1]: lost activity

O=[N+]([O-])c1ccc(-c2nccn2S(=O)(=O)c2ccccc2)cc1 [10x, 2-(4-nitrophenyl)-1-(phenylsulfonyl)-1H-imidazole]
IC50 (PC-3 cells; read-out: IC50 PC-3, Table 11): > 10 µM

O=S(=O)(c1ccccc1)n1ccnc1-c1ccc(OCc2ccccc2)cc1 [10j, 2-(4-(benzyloxy)phenyl)-1-(phenylsulfonyl)-1H-imidazole]
IC50 (PC-3 cells; read-out: IC50 PC-3, Table 11): > 10 µM

CNCc1ccc(-c2nc(C(=O)c3cc(OC)c(OC)c(OC)c3)cs2)cc1.Cl [2s, (2-(4-((Methylamino)methyl)phenyl)thiazol-4-yl)(3,4,5-trimethoxyphenyl)methanone hydrochloride]
antiproliferative activity (in words) [1]: abrogated activity

O=C(c1ccc(F)cc1)c1c[nH]c(-c2ccc(OCc3ccccc3)cc2)n1 [12jb, (2-(4-(benzyloxy)phenyl)-1H-imidazol-4-yl)(4-fluorophenyl)methanone]
increase in activity compared with 12kb [1]: 440 fold

O=C(c1ccc(F)cc1)c1c[nH]c(-c2ccc(Cl)cc2)n1 [12fb, (2-(4-chlorophenyl)-1H-imidazol-4-yl)(4-fluorophenyl)methanone]
lowest tested concentration with effective inhibition of colony formation (B16-F1 melanoma cells): 100 nM

COc1cc(C(=O)c2csc(-c3ccccc3)n2)cc(OC)c1OC [SMART-H]
T-C (A375 melanoma xenografts): 10 days | Total log cell kill (A375 melanoma xenografts; doubling time 4.6 d): 0.7

COc1cc(C(=O)n2ccnc2-c2ccccc2)cc(OC)c1OC [12aaa, (2-phenyl-1H-imidazol-1-yl)(3,4,5-trimethoxyphenyl)methanone]
IC50 (PC-3 cells; read-out: IC50 PC-3, Table 11): > 10 µM

O=C(c1cc(O)c(O)c(O)c1)c1c[nH]c(-c2ccc(Cl)cc2)n1 [13fa, (2-(4-chlorophenyl)-1H-imidazol-4-yl)(3,4,5-trihydroxyphenyl)methanone]
IC50 (PPC-1 cells): > 10 µM

COc1cccc2c1C(=O)c1c(O)c3c(c(O)c1C2=O)C[C@@](O)(C(=O)CO)C[C@@H]3O[C@H]1C[C@H](N)[C@H](O)[C@H](C)O1 [Doxorubicin]
permeability of endothelial cell monolayer (HUVEC monolayers): did not induce any change

COc1cc(C(=O)c2c[nH]c(-c3cc(OC)c(OC)c(OC)c3)n2)cc(OC)c1OC [12ea, (3,4,5-trimethoxyphenyl)(2-(3,4,5-trimethoxyphenyl)-1H-imidazol-4-yl)methanone]
IC50 [1, 9]: > 10 µM | IC50 (DU 145 cells): > 10 µM | IC50 (PPC-1 cells): > 10 µM | IC50 (PC-3 cells; [10]): > 10 µM | IC50 (LNCaP cells; Table 12, 96 h): > 10 µM

COc1cc(C(=O)c2coc(-c3ccccc3)n2)cc(OC)c1OC [36a, (2-Phenyl-oxazol-4-yl)-(3,4,5-trimethoxy-phenyl)-methanone]
antiproliferative activity (in words) [1]: hundreds of nanomolar range

COc1cc(C(=O)c2csc(-c3ccc(CC(N)=O)cc3)n2)cc(OC)c1OC [2q]
IC50 (LNCaP cells; Table 6): > 10 µM | IC50 (A375 melanoma cells): > 20 µM

COc1ccc(/C=C\c2cc(OC)c(OC)c(OC)c2)cc1O [CA4, Combretastatin A-4]
permeability of endothelial cell monolayer (HUVEC monolayers): increased permeability

COc1cc(C(=O)c2cccc(-c3ccccc3)c2)cc(OC)c1OC [1a, Biphenyl-3-yl(3,4,5-trimethoxyphenyl)methanone]
antiproliferative activity (in words) [1]: hundreds of nanomolar range

COc1cc(C(=O)c2c[nH]c(-c3ccc(C)cc3)n2)cc(OC)c1OC [12da, (2-(p-tolyl)-1H-imidazol-4-yl)(3,4,5-trimethoxyphenyl)methanone]
lowest tested concentration with effective inhibition of colony formation (B16-F1 melanoma cells): 20 nM | effect on microtubules [4]: microtubule fragmentation

COc1ccc(C(=O)n2ccnc2-c2ccccc2)cc1 [12aba, (4-methoxyphenyl)(2-phenyl-1H-imidazol-1-yl)methanone]
IC50 (PC-3 cells; read-out: IC50 PC-3, Table 11): > 10 µM

COc1cc(C(=O)c2c[nH]c(-c3ccc(Br)cc3)n2)cc(OC)c1OC [12la, (2-(4-bromophenyl)-1H-imidazol-4-yl)(3,4,5-trimethoxyphenyl)methanone]
IC50 ([1]; Homo sapiens, text on Tables 1, 2, 13, read-out: IC50 (range over cell lines)): 1 to 50 µM

O=C(c1cc(O)c(O)c(O)c1)c1c[nH]c(-c2cc(O)c(O)c(O)c2)n1 [13ea, (3,4,5-trihydroxyphenyl)(2-(3,4,5-trihydroxyphenyl)-1H-imidazol-4-yl)methanone]
IC50 (DU 145 cells): > 10 µM | IC50 (PPC-1 cells): > 10 µM | IC50 (PC-3 cells; [10]): > 10 µM | IC50 (LNCaP cells; Table 12, 96 h): > 10 µM
